The text below walks through data of patent US9920073B2, “Compositions useful for inhibiting HIV-1 infection and methods using same” (Drexel University, priority 2013, dated 2018).

Type in all cases: cell-based
The test system of one assay is HIV-1HxBc2. Put plainly: microbe, parasite or virus in culture.
The next assay deals with HIV-1JR-CSF. Put plainly: microbe, parasite or virus in culture.
The test system of assay [1] is attachment of HIV-1HxBc2 to U87-CD+-CXCR4+ cells. Nature of the assay: Temperature shift assay (viral attachment). As for the experimental part:
The entry process can be divided into two temperature-dependent stages, with receptor and coreceptor binding occurring over the temperature range 0-37° C., while the fusion process only occurs at temperatures above 25° C. (Frey, et al., 1995, J. Virol. 69:1462-1472). Based upon differential ranges in temperatures at which binding and fusion/entry occur, a novel assay was developed to detect viral attachment in the presence or absence of inhibitors. Recombinant single-round infective HIV-1 virions are incubated with permissive cells at 4° C. for 2 hours to only allow the initial receptor/coreceptor engagement. Unattached virions, and the compound, are then removed by washing the cells with cold media followed by centrifugation at 1200 rpm for 4 min at 4° C. Cells are replenished with fresh media and transferred to 37° C. After 48 hour of incubation, the level of infection is measured by a luciferase activity as in the standard single-round infection assay. […] Conversely, the small molecule CD4-mimetic NBD-556, which is known to disrupt the gp120-CD4 interaction, reduces the level of infection to 40% of vehicle (DMSO) alone (FIG. 11). […] Moreover, this analysis may be extended to encompass viruses that utilize CCR5 for entry.

Assay [2] deals with amphotropic murine leukemia virus (AMLV). Put plainly: microbe, parasite or virus in culture. The note with it: for specificity to HIV-1 (inhibition of AMLV-pseudotyped HIV-1): single round infection assay, in words; for IC50: Murine leukemia virus, read-out: IC50 AMLV, Table 2 screening results, specificity control.
The subject of another assay is HIV-1 isolate JR-FL. Nature of the assay: microbe, parasite or virus in culture. As to conditions: Human immunodeficiency virus 1, tropism R5.
The test system of the next assay is HIV-1 isolate BaL. Nature of the assay: microbe, parasite or virus in culture. The note with it: Human immunodeficiency virus 1, tropism R5.
The test system of another assay is HIV-1 isolate AC10.0.29. Nature of the assay: microbe, parasite or virus in culture. The note with it: Human immunodeficiency virus 1; isolate AC10.0.29, tropism R5.
In another assay the test system is HIV-1YU-2. Put plainly: microbe, parasite or virus in culture. As to conditions: Human immunodeficiency virus 1, read-out: IC50 YU-2, single round infection assay.
The mark [3] stands for this setting: Human immunodeficiency virus 1, read-out: IC50 HxBc2.
Where [4] appears, read: Human immunodeficiency virus 1, read-out: IC50 JR-CSF.
Setting [5] is: read-out: IC50 JR-CSF, single round infection assay.

Where two headings read alike, the source gives them in different places.

One may read the IC50 as the point on the concentration scale where inhibition reaches its midpoint.

For `COc1ncc(OC)c2c(C(=O)C(=O)N3CC4CCC(c5ccccc5)C4C3)c[nH]c12` (stereo not drawn) [SC10, 1-(4,7-dimethoxy-1H-pyrrolo[2,3-c]pyridin-3-yl)-2-(4-phenylhexahydrocyclopenta[c]pyrrol-2(1H)-yl)ethane-1,2-dione], the figures for the IC50 in the assay on HIV-1HxBc2 (setting [3]) and in the assay with HIV-1JR-CSF (setting [4]) were 4810 ± 4100 nM and 420 ± 110 nM, respectively.

Turning to `Cc1ncn(-c2ncc(F)c3c(C(=O)C(=O)N4CC5C=NN(c6nnnn6-c6ccccc6)C5C4)c[nH]c23)n1` (stereo not drawn) [SC39, 1-(4-fluoro-7-(3-methyl-1H-1,2,4-triazol-1-yl)-1H-pyrrolo[2,3-c]pyridin-3-yl)-2-(1-(1-phenyl-1H-tetrazol-5-yl)-3a,4,6,6a-tetrahydropyrrolo[3,4-c]pyrazol-5(1H)-yl)ethane-1,2-dione], the IC50 with HIV-1HxBc2 (setting [3]) stood at 35300 ± 9300 nM.

Consider `COc1cnc(-n2cnc(C)n2)c2[nH]cc(C(=O)C(=O)NCC3CN(C(=O)c4ccccc4)C3)c12` [SC14, N-((1-benzoylazetidin-3-yl)methyl)-2-(4-methoxy-7-(3-methyl-1H-1,2,4-triazol-1-yl)-1H-pyrrolo[2,3-c]pyridin-3-yl)-2-oxoacetamide], for which the IC50 with HIV-1HxBc2 (setting [3]) came to 1200 ± 400 nM; with HIV-1JR-CSF (setting [4]), 2500 ± 400 nM.

In the case of `COc1cnc(-n2cnc(C)n2)c2[nH]cc(C(=O)C(=O)N3CC(CCC(=O)c4ccccc4)C3)c12` [SC15, 1-(4-methoxy-7-(3-methyl-1H-1,2,4-triazol-1-yl)-1H-pyrrolo[2,3-c]pyridin-3-yl)-2-(3-(3-oxo-3-phenylpropyl)azetidin-1-yl)ethane-1,2-dione], the IC50 with HIV-1HxBc2 (setting [3]) turned out to be 3 ± 0.5 nM; with HIV-1JR-CSF (setting [4]) it was 2 ± 0.1 nM.

For `CC1(C)CC(NC(=O)C(=O)Nc2ccc(Cl)cc2)CC(C)(C)N1` [NBD-556, N1-(4-chlorophenyl)-N2-(2,2,6,6-tetramethyl-4-piperidinyl)-ethanediamide, reference compound], the “level of infection relative to vehicle (DMSO) alone” value in assay [1] (virions with cells at 4° C. for 2 hours, wash, 37° C. 48 hour, FIG. 11) stood at 40%.

In the case of `COc1cnc(Cl)c2[nH]cc(C(=O)C(=O)N3CC4CN(C(=O)c5ccccc5)CC4C3)c12` (stereo not drawn) [SC07, 1-(5-benzoylhexahydropyrrolo[3,4-c]pyrrol-2(1H)-yl)-2-(7-chloro-4-methoxy-1H-pyrrolo[2,3-c]pyridin-3-yl)ethane-1,2-dione], the values for the IC50 with HIV-1HxBc2 (setting [3]) and in the assay on HIV-1JR-CSF (setting [4]) were 16800 ± 6200 nM and 980 ± 60 nM, respectively. Also, the “specificity to HIV-1 (inhibition of AMLV-pseudotyped HIV-1)” value in assay [2] is reported as “no inhibition of AMLV-pseudotyped HIV-1”.

With `COc1cnc(-n2cnc(C)n2)c2[nH]cc(C(=O)C(=O)N3CC4C=NN(c5ccccc5)C4C3)c12` (stereo not drawn) [SC12, 1-(4-methoxy-7-(3-methyl-1H-1,2,4-triazol-1-yl)-1H-pyrrolo[2,3-c]pyridin-3-yl)-2-(1-phenyl-3a,4,6,6a-tetrahydropyrrolo[3,4-c]pyrazol-5(1H)-yl)ethane-1,2-dione], the IC50 in the assay on HIV-1 isolate JR-FL is 106 ± 52 nM; in the assay with HIV-1HxBc2 (Human immunodeficiency virus 1) it was 24 ± 3 nM; with HIV-1HxBc2 (setting [3]) it was 80 ± 20 nM; with HIV-1JR-CSF (Human immunodeficiency virus 1) it was 13 ± 3 nM; in the assay with HIV-1JR-CSF (setting [4]), 8 ± 2 nM; in the assay on HIV-1 isolate BaL it was 3.5 ± 0.3 µM. The compound further returned an IC50 in the assay on HIV-1 isolate AC10.0.29 of 488 ± 47 nM. The “block of viral attachment” value in assay [1] (temperature shift assay, in words) is on record as “does not appear to block viral attachment”.

Consider `COc1cnc(-n2cnc(C)n2)c2[nH]cc(C(=O)C(=O)N3CC=C(CNC(=O)c4ccccc4)CC3)c12` [SC45, N-((1-(2-(4-methoxy-7-(3-methyl-1H-1,2,4-triazol-1-yl)-1H-pyrrolo[2,3-c]pyridin-3-yl)-2-oxoacetyl)-1,2,3,6-tetrahydropyridin-4-yl)methyl)benzamide], for which the IC50 with HIV-1HxBc2 (setting [3]) amounted to 100 ± 30 nM; with HIV-1JR-CSF (setting [4]), 150 ± 9 nM.

As for `COc1cnc(-n2cnc(C)n2)c2[nH]cc(C(=O)C(=O)N3CC4CN(C(=O)c5ccccc5)CC4C3)c12` (stereo not drawn) [SC11, 1-(5-benzoylhexahydropyrrolo[3,4-c]pyrrol-2(1H)-yl)-2-(4-methoxy-7-(3-methyl-1H-1,2,4-triazol-1-yl)-1H-pyrrolo[2,3-c]pyridin-3-yl)ethane-1,2-dione], in the assay with HIV-1JR-CSF (setting [5]), the IC50 was 0.8 ± 0.4 nM. Besides, in assay [2], the “specificity to HIV-1 (inhibition of AMLV-pseudotyped HIV-1)” value is listed as “retaining HIV-1 specificity”.

As for `O=C(C(=O)N1CC2C=NN(c3ccccc3)C2C1)c1c[nH]c2c(-n3ccnn3)ncc(F)c12` (stereo not drawn) [SC38, 1-(4-fluoro-7-(1H-1,2,3-triazol-1-yl)-1H-pyrrolo[2,3-c]pyridin-3-yl)-2-(1-phenyl-3a,4,6,6a-tetrahydropyrrolo[3,4-c]pyrazol-5(1H)-yl)ethane-1,2-dione], the IC50 with HIV-1HxBc2 (setting [3]) was found to be 8 ± 3 nM.

Turning to `O=C(c1ccccc1)N1CCN(C(=O)c2ccc3c4c(cccc24)CC3)CC1` [SC03, (4-benzoylpiperazin-1-yl)(1,2-dihydroacenaphthylen-5-yl)methanone], the concentration for half-maximal inhibition (IC50) amounted to 420 ± 280 nM in the assay on HIV-1JR-CSF (setting [4]) and 13.1 ± 1.7 µM in the assay on HIV-1YU-2.

`COc1cnc(-n2cnc(C)n2)c2[nH]cc(C(=O)C(=O)N3CC4C=NN(c5cccc(C)n5)C4C3)c12` (stereo not drawn) [SC24, 1-(4-methoxy-7-(3-methyl-1H-1,2,4-triazol-1-yl)-1H-pyrrolo[2,3-c]pyridin-3-yl)-2-(1-(6-methylpyridin-2-yl)-3a,4,6,6a-tetrahydropyrrolo[3,4-c]pyrazol-5(1H)-yl)ethane-1,2-dione]: in the assay with HIV-1JR-CSF (setting [4]), the IC50 is 700 ± 400 nM.

Consider `COc1cnc(-n2cnc(C)n2)c2[nH]cc(C(=O)C(=O)N(C)C3CN(C(=O)c4ccccc4)C3)c12` [SC18, N-(1-benzoylazetidin-3-yl)-2-(4-methoxy-7-(3-methyl-1H-1,2,4-triazol-1-yl)-1H-pyrrolo[2,3-c]pyridin-3-yl)-N-methyl-2-oxoacetamide], for which the IC50 was 102000 ± 160000 nM in the assay with HIV-1HxBc2 (setting [3]) and 1300 ± 200 nM with HIV-1JR-CSF (setting [4]).

`O=C(CSc1nnnn1C1CCCC1)N1CCN(C(=O)c2cccs2)CC1` [Compound 30]: the 50% inhibitory concentration (IC50) (with HIV-1YU-2; in assay [2]) was over 50 µM each time.

As for `O=C(c1ccccc1)N1CC2CN(C(=O)c3ccc4c5c(cccc35)CC4)CC2C1` (stereo not drawn) [SC04, (5-benzoylhexahydropyrrolo[3,4-c]pyrrol-2(1H)-yl)(1,2-dihydroacenaphthylen-5-yl)methanone], the values for the half-maximal inhibitory concentration (IC50) in the assay with HIV-1JR-CSF (setting [5]) and in the assay with HIV-1YU-2 were 100000 ± 30000 nM and 70 ± 6 µM, respectively.

In the case of `COc1ccc(Br)cc1C=CC(=O)N1CCC(C(=O)c2ccccc2)CC1` [Compound 15], the IC50 amounted to 156 µM in the assay on HIV-1YU-2 and 210 µM in assay [2].

With `COc1cnc(-n2cnc(C)n2)c2[nH]cc(C(=O)C(=O)N3CC(CSC(=O)c4ccccc4)C3)c12` [SC16, S-((1-(2-(4-methoxy-7-(3-methyl-1H-1,2,4-triazol-1-yl)-1H-pyrrolo[2,3-c]pyridin-3-yl)-2-oxoacetyl)azetidin-3-yl)methyl) benzothioate], the results for the IC50 with HIV-1HxBc2 (setting [3]) and in the assay with HIV-1JR-CSF (setting [4]) were 150 ± 30 nM and 100 ± 20 nM, respectively.

`COc1ncc(OC)c2c(C(=O)C(=O)N3CC4CN(C(=O)c5ccccc5)CC4C3)c[nH]c12` (stereo not drawn) [SC08, 1-(5-benzoylhexahydropyrrolo[3,4-c]pyrrol-2(1H)-yl)-2-(4,7-dimethoxy-1H-pyrrolo[2,3-c]pyridin-3-yl)ethane-1,2-dione]: the IC50 was 190 ± 80 nM in the assay with HIV-1HxBc2 (setting [3]) and 90 ± 10 nM with HIV-1JR-CSF (setting [5]). The “specificity to HIV-1 (inhibition of AMLV-pseudotyped HIV-1)” value in assay [2] is on record as “no inhibition of AMLV-pseudotyped HIV-1”.

As for `Cc1[nH]c2ccccc2c1C(=O)C(=O)N1CCC(C(=O)c2ccc(O)cc2)CC1` [Compound 40], the IC50 (in the assay with HIV-1YU-2; in assay [2]) was over 50 µM each time.

Consider `COc1ccc(Cl)cc1C(=O)Cn1c(=O)oc2cc(S(=O)(=O)N3CCOCC3)ccc21` [Compound 43], for which the half-inhibitory concentration (IC50) (in the assay on HIV-1YU-2; in assay [2]) was over 50 µM each time.

On to `O=C(c1cc(-c2ccc(Cl)cc2)on1)N1CCN(S(=O)(=O)c2ccccc2F)CC1` [Compound 14], for which the IC50 (in the assay with HIV-1YU-2; in assay [2]) was over 300 µM each time.

With `O=C(CCC(=O)N1CCN(C(=O)c2ccccc2)CC1)c1ccc(Cl)s1` [Compound 2], the IC50 (in the assay on HIV-1YU-2; in assay [2]) was over 300 µM each time.
